The source of these data is US10301317B2, “Inhibitors of ERK and methods of use” (Kura Oncology, Inc., priority 2013, dated 2019).

By IC50 is commonly meant the concentration needed to halve the response being measured.

This experiment relates to phospho-p90 RSK (RSK1 Thr359/Ser363) in A375 (Braf V600E) cells. Put plainly: Phospho-p90 RSK ELISA using A375 (Braf V600E) cells. Format: cell-based. Particulars: Homo sapiens, A-375, 2 hours compound treatment, read-out: Cellular Phospho-p90RSK IC50. How it is done:
In preparation for the assay, an ELISA plate with the pre-coated goat anti-mouse antibody (Thermo Scientific) was treated with a mouse anti-human RSK1 antibody (monoclonal, Invitrogen) at 1:800 dilution (150 ng/well) in PBS, and the plate was placed on a plate shaker at 4° C. overnight. […] After two […] of the compound treatment, the supernatant was removed from the cell plate, and cells were lysed in 100 μl per well of cell lysis buffer (Cell Signaling Technologies) containing phosphatase and protease inhibitors (Cell Signaling Technologies) on a plate shaker at 4° C. for 20 minutes. The ELISA plate was washed four times with ELISA wash buffer (Thermo Scientific) prior to addition of 100 μL cell lysate. The lysate was incubated on the ELISA plate with gentle shaking at room temperature for 2 hours. The contents of the wells were removed, and the ELISA plate was washed four times with wash buffer, and incubated with 100 μL per well of anti-phospho-RSK1 (Thr359/Ser363) rabbit monoclonal antibody (Millipore) at dilution of 1:1000 in StartingBlock buffer (Thermo Scientific) on a plate shaker at room temperature for 1 hour. The contents of the wells were removed, the ELISA plate was washed four times with wash buffer, and was incubated with 100 μL per well of goat anti-rabbit HRP (Thermo Scientific) at dilution of 1:3000 in StartingBlock buffer (Thermo Scientific) on a plate shaker at room temperature for 1 hour. The contents of the wells were removed, the ELISA plate was washed four times with wash buffer, and then incubated with 100 μL per well of TMB substrate solution (Thermo Scientific) on a plate shaker at room temperature for 20 minutes. Finally, 100 μL of TMB stop solution (Thermo Scientific) was added to each well and the absorbance is measured at 450 nm on a Tecan plate reader.
(In general: An ELISA detects its analyte on a solid surface through an enzyme-linked reagent.)
On to `Cc1cc(-c2n[nH]c3cc4c(cc23)CN([C@@H]2CN(CC(F)(F)F)C[C@H]2C2CC2)C(=O)N4)ccn1` (mixture of isomers) [Example 319], for which the IC50 is 0.25 to 1 µM.

For the compound `Cc1cc(-c2n[nH]c3cc4c(cc23)CN([C@@H]2CN(CC(F)(F)F)C[C@H]2C(C)C)C(=O)N4)ccn1` (mixture of isomers) [Example 322], the IC50 lay in the range of 0.25 to 1 µM.

Consider `Cc1cc(-c2n[nH]c3cc4c(cc23)CN([C@@H]2CN(C)C[C@H]2C(C)C)C(=O)N4)ccn1` (mixture of isomers) [Example 327], for which the IC50 was over 1 µM.

In the case of `COc1ccc(-c2n[nH]c3cc4c(cc23)CN([C@@H]2CN(C)C[C@H]2c2ccccc2)C(=O)N4)cn1` (mixture of isomers) [Example 353], the IC50 is at most 0.25 µM.

Turning to `COc1cc(-c2n[nH]c3cc4c(cc23)CN([C@@H]2CN(C)C[C@H]2c2ccccc2)C(=O)N4)ccn1` (mixture of isomers) [Example 354], the IC50 is at most 0.25 µM.

On to `COc1ncc(-c2n[nH]c3cc4c(cc23)CN([C@@H]2CN(C)C[C@H]2c2ccccc2)C(=O)N4)cn1` (mixture of isomers) [Example 355], for which the concentration for half-maximal inhibition (IC50) lay in the range of 0.25 to 1 µM.

As to `Cc1cc(-c2n[nH]c3cc4c(cc23)CN([C@@H]2CN(CCC#N)C[C@H]2c2ccccc2)C(=O)N4)ccn1` (mixture of isomers) [Example 356], the IC50 is at most 0.25 µM.

As for `Cc1cc(-c2n[nH]c3cc4c(cc23)CN([C@@H]2CN(C3CCOCC3)C[C@H]2c2ccccc2)C(=O)N4)ccn1` (mixture of isomers) [Example 359], the half-inhibitory concentration (IC50) lay within 0.25 to 1 µM.

Take `Cc1cc(-c2n[nH]c3cc4c(cc23)CN([C@@H]2CN(CCC(F)(F)F)C[C@H]2c2ccccc2)C(=O)N4)ccn1` (mixture of isomers) [Example 387]: the IC50 is 0.25 to 1 µM.

Take `Cc1cc(-c2n[nH]c3cc4c(cc23)CN([C@@H]2CNC[C@H]2c2ccccc2)C(=O)N4)ccn1` (racemic) [Example 223]: the IC50 is 0.25 to 1 µM.

Regarding `Cc1cc(-c2n[nH]c3cc4c(cc23)CN([C@@H]2CN(CC(F)(F)F)C[C@H]2c2ccc(F)cc2)C(=O)N4)ccn1` (racemic) [Example 300], the IC50 is at most 0.25 µM.

In the case of `Cc1cc(-c2n[nH]c3cc4c(cc23)CN([C@@H]2CN(CC(F)(F)F)C[C@H]2C)C(=O)N4)ccn1` (racemic) [Example 302], the IC50 is at most 0.25 µM.

For the compound `Cc1cc(-c2n[nH]c3cc4[nH]c(=O)c(Cc5ccccc5)cc4cc23)ccn1` [Example 6], the IC50 was at most 0.25 µM.

In the case of `COc1cc(-c2n[nH]c3cc4c(cc23)CN(Cc2ccc(F)c(Cl)c2)C(=O)N4)ccn1` [Example 38], the IC50 lay within 0.25 to 1 µM.

In the case of `O=C1Nc2cc3[nH]nc(-c4ccc(F)cc4)c3cc2CN1Cc1ccc(F)c(Cl)c1` [Example 40], the IC50 is over 1 µM.

Take `O=C1Nc2cc3[nH]nc(C4CC4)c3cc2CN1Cc1ccc(F)c(Cl)c1` [Example 42]: the IC50 is over 1 µM.

In the case of `Cc1cc(-c2n[nH]c3cc4c(cc23)CN(CCO)C(=O)N4)ccn1` [Example 43], the IC50 was over 1 µM.

On to `Cc1cc(-c2n[nH]c3cc4c(cc23)CN(C2CCOCC2)C(=O)N4)ccn1` [Example 44], for which the IC50 was in the range of 0.25 to 1 µM.

With `COCCOCCN1Cc2cc3c(-c4ccnc(C)c4)n[nH]c3cc2NC1=O` [Example 45], the IC50 was 0.25 to 1 µM.

Regarding `Cc1cc(-c2n[nH]c3cc4c(cc23)CN(CCN(C)C)C(=O)N4)ccn1` [Example 46], the IC50 was over 1 µM.

For the compound `O=C1Nc2cc3[nH]nc(-c4cn[nH]c4)c3cc2CN1Cc1ccc(F)c(Cl)c1` [Example 48], the IC50 is 0.25 to 1 µM.

Turning to `Cc1cc(-c2n[nH]c3cc4c(cc23)CN(CCc2cccc(Cl)c2)C(=O)N4)ccn1` [Example 50], the half-maximal inhibitory concentration (IC50) was at most 0.25 µM.

For `Cc1cc(-c2n[nH]c3cc4c(cc23)CN(CCN2CCOCC2)C(=O)N4)ccn1` [Example 51], the IC50 was over 1 µM.

In the case of `Cc1cc(-c2n[nH]c3cc4c(cc23)CN(C(C)CC(C)C)C(=O)N4)ccn1` (stereo not drawn) [Example 53], the IC50 is 0.25 to 1 µM.

In the case of `Cc1cc(-c2n[nH]c3cc4c(cc23)CN([C@H](C)CO)C(=O)N4)ccn1` [Example 54], the IC50 was over 1 µM.

As for `Cc1cc(-c2n[nH]c3cc4c(cc23)CN(Cc2cccc(C#N)c2)C(=O)N4)ccn1` [Example 55], the IC50 is at most 0.25 µM.

Take `Cc1cc(-c2n[nH]c3cc4c(cc23)CN(Cc2nccs2)C(=O)N4)ccn1` [Example 56]: the IC50 was in the range of 0.25 to 1 µM.

Take `O=C1Nc2cc3[nH]nc(-c4cccnc4)c3cc2CN1Cc1cccc(Cl)c1` [Example 57]: the IC50 was at most 0.25 µM.

In the case of `Cc1ccc(-c2n[nH]c3cc4c(cc23)CN(Cc2cccc(Cl)c2)C(=O)N4)cn1` [Example 58], the IC50 is at most 0.25 µM.

Turning to `O=C1Nc2cc3[nH]nc(-c4ccc5nncn5c4)c3cc2CN1Cc1cccc(Cl)c1` [Example 59], the IC50 is over 1 µM.

In the case of `O=C1Nc2cc3[nH]nc(-c4cn[nH]c4)c3cc2CN1Cc1cccc(Cl)c1` [Example 60], the IC50 is over 1 µM.

In the case of `O=C1Nc2cc3[nH]nc(-c4ccc(=O)[nH]c4)c3cc2CN1Cc1cccc(Cl)c1` [Example 61], the IC50 is over 1 µM.

For the compound `Cc1cc(-c2n[nH]c3cc4c(cc23)CN([C@@H]2CCCN(CC3CC3)C2)C(=O)N4)ccn1` [Example 62], the IC50 lay within 0.25 to 1 µM.

Take `Cc1cc(-c2n[nH]c3cc4c(cc23)CN(CCc2ccc(F)cc2)CC(=O)N4)ccn1` [Example 67]: the concentration for half-maximal inhibition (IC50) is over 1 µM.

Turning to `Cc1cc(-c2n[nH]c3cc4c(cc23)CN(C2CCN(Cc3ccccc3)CC2)C(=O)N4)ccn1` [Example 70], the IC50 is 0.25 to 1 µM.

For the compound `COc1ncc(-c2n[nH]c3cc4c(cc23)CN([C@H](C)c2cccc(Cl)c2)C(=O)N4)cn1` [Example 71], the IC50 was at most 0.25 µM.

As to `COc1ncc(-c2n[nH]c3cc4c(cc23)CN(Cc2ccc(F)cc2)C(=O)N4)cn1` [Example 72], the concentration for half-maximal inhibition (IC50) is at most 0.25 µM.

Take `COc1ccc(-c2n[nH]c3cc4c(cc23)CN(Cc2cccc(Cl)c2)C(=O)N4)cn1` [Example 75]: the IC50 was at most 0.25 µM.

Take `COc1ccc(-c2n[nH]c3cc4c(cc23)CN(Cc2ccc(F)cc2)C(=O)N4)cn1` [Example 76]: the IC50 was at most 0.25 µM.

With `O=C1Nc2cc3[nH]nc(N4CCOCC4)c3cc2CN1Cc1cccc(Cl)c1` [Example 78], the IC50 was at most 0.25 µM.

On to `Cc1cc(-c2n[nH]c3cc4c(cc23)CN(CCN)C(=O)N4)ccn1` [Example 83], for which the IC50 was over 1 µM.

For `COc1ncc(-c2n[nH]c3cc4c(cc23)CN(CCc2cccc(Cl)c2)C(=O)N4)cn1` [Example 86], the IC50 is at most 0.25 µM.

For `COc1ncc(-c2n[nH]c3cc4c(cc23)CN(Cc2cc(F)cc(F)c2)C(=O)N4)cn1` [Example 88], the IC50 is at most 0.25 µM.

For the compound `Cc1ncc(-c2n[nH]c3cc4c(cc23)CN(Cc2cccc(Cl)c2)C(=O)N4)cn1` [Example 90], the IC50 was at most 0.25 µM.

Consider `COc1ncc(-c2n[nH]c3cc4c(cc23)CN([C@H](C)c2ccc(Cl)cc2)C(=O)N4)cn1` [Example 95], for which the IC50 fell in the range of 0.25 to 1 µM.

With `O=C1Nc2cc3[nH]nc(-c4ccnnc4)c3cc2CN1Cc1ccc(F)cc1` [Example 97], the IC50 lay within 0.25 to 1 µM.

`COc1ncc(-c2n[nH]c3cc4c(cc23)CN([C@H](C)c2cccc(C#N)c2)C(=O)N4)cn1` [Example 100]: the 50% inhibitory concentration (IC50) was 0.25 to 1 µM.

In the case of `O=C1Nc2cc3[nH]nc(-c4ccnnc4)c3cc2CN1CCc1ccc(F)cc1` [Example 110], the IC50 was in the range of 0.25 to 1 µM.

As for `C[C@H](c1cccc(Cl)c1)N1Cc2cc3c(-c4ccnnc4)n[nH]c3cc2NC1=O` [Example 111], the IC50 lay in the range of 0.25 to 1 µM.

As to `O=C1Nc2cc3[nH]nc(-c4ccnnc4)c3cc2CN1Cc1ccc(F)cc1F` [Example 114], the half-maximal inhibitory concentration (IC50) was in the range of 0.25 to 1 µM.

With `C[C@H](c1ccc(Cl)cc1)N1Cc2cc3c(-c4ccnnc4)n[nH]c3cc2NC1=O` [Example 115], the concentration for half-maximal inhibition (IC50) lay in the range of 0.25 to 1 µM.

Turning to `O=C1Nc2cc3[nH]nc(-c4ccnnc4)c3cc2CN1[C@H](CO)c1cccc(Cl)c1` [Example 117], the IC50 was over 1 µM.

For `COc1ncc(-c2n[nH]c3cc4c(cc23)CN([C@H](CO)c2cccc(Cl)c2)C(=O)N4)cn1` [Example 118], the IC50 was at most 0.25 µM.

On to `O=C1Nc2cc3[nH]nc(-c4ccnnc4)c3cc2CN1[C@@H]1CCCN(Cc2ccccc2F)C1` [Example 121], for which the half-maximal inhibitory concentration (IC50) was at most 0.25 µM.

Take `O=C1Nc2cc3[nH]nc(-c4ccnnc4)c3cc2CN1[C@@H]1CCCN(Cc2c(F)cccc2F)C1` [Example 122]: the IC50 is at most 0.25 µM.

For `O=C1Nc2cc3[nH]nc(-c4ccnnc4)c3cc2CN1Cc1cccc(C(F)(F)F)c1` [Example 124], the IC50 fell in the range of 0.25 to 1 µM.

With `COc1ncc(-c2n[nH]c3cc4c(cc23)CN(Cc2cccc(C#N)c2)C(=O)N4)cn1` [Example 125], the half-inhibitory concentration (IC50) is 0.25 to 1 µM.

For `COc1cccc(F)c1CN1CCC[C@@H](N2Cc3cc4c(-c5ccnnc5)n[nH]c4cc3NC2=O)C1` [Example 126], the IC50 was at most 0.25 µM.

For the compound `O=C1Nc2cc3[nH]nc(-c4ccnnc4)c3cc2CN1Cc1cc(F)cc(F)c1` [Example 127], the IC50 was 0.25 to 1 µM.

As to `N#Cc1cccc(CN2Cc3cc4c(-c5ccnnc5)n[nH]c4cc3NC2=O)c1` [Example 128], the 50% inhibitory concentration (IC50) is over 1 µM.
